In ChEMBL document CHEMBL1123761, “Inhibition of the mammalian beta-lactamase renal dipeptidase (dehydropeptidase-I) by (Z)-2-(acylamino)-3-substituted-propenoic acids” (J Med Chem, 1987):

The compounds below were run against T1, Dipeptidase 1 (Sus scrofa, UniProt P22412) (assay: Inhibitory activity against beta-lactamase renal dipeptidase).
T1 sequence (P22412 whole entry): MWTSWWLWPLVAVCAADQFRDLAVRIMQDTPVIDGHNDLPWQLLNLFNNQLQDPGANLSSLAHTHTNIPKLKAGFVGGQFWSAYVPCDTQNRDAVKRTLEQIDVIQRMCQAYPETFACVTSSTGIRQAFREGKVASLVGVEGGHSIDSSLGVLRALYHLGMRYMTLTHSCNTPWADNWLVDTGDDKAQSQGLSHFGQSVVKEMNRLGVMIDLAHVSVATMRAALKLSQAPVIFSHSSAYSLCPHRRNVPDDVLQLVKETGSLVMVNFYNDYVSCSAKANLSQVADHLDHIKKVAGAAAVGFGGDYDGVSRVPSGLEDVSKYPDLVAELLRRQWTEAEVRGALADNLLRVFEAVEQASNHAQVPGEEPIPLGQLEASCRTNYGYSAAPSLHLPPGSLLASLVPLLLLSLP

Ki [nM] | SMILES
30 | C/C=C(\NC(=O)C1CC1(Br)Br)C(=O)O (stereo not drawn)
4000 | C/C=C(\NC(=O)CC(C)CCCC(C)C)C(=O)O (stereo not drawn)
230 | CC(=O)NCCCCC/C=C(\NC(=O)C1CC1(C)C)C(=O)O (stereo not drawn)
164000 | C/C=C(\NC(=O)C1(C)CC1(Cl)Cl)C(=O)O (stereo not drawn)
440 | CC1(C)CC1C(=O)N/C(=C\C1CC1)C(=O)O (stereo not drawn)
110 | CCCCCCCC/C=C(\NC(=O)C1CC1(C)C)C(=O)O (stereo not drawn)
110 | CC1(C)C[C@@H]1C(=O)N/C(=C\CCCCSC[C@H](N)C(=O)O)C(=O)O (stereo in doubt; 176) [CILASTATIN]
1090 | CC1(C)CC1C(=O)N/C(=C\CCCCC[n+]1ccccc1)C(=O)[O-] (stereo not drawn)
9800 | C/C=C(\NC(=O)CC1CCCC1)C(=O)O
92 | CC1(C)CC1C(=O)N/C(=C\CCCCCC/C=C(\NC(=O)C1CC1(C)C)C(=O)O)C(=O)O (stereo not drawn)
160 | CC1(C)CC1C(=O)N/C(=C\CCCCCCBr)C(=O)O (stereo not drawn)
31000 | C/C=C(\NC(=O)CSCC)C(=O)O
70000 | C/C=C(\NC(=O)c1ccccc1)C(=O)O
1600 | C/C=C(\NC(=O)[C@@H]1C[C@H]1CC)C(=O)O
780 | CC1(C)CC1C(=O)N/C(=C\CCCCCNC=N)C(=O)O (stereo not drawn)
7200 | C/C=C(\NC(=O)C1C(C)C1(C)C)C(=O)O (stereo not drawn)
110 | CCCCCCCCC/C=C(\NC(=O)C1CC1(C)C)C(=O)O (stereo not drawn)
58 | CC1(C)CC1C(=O)N/C(=C\CCCCC(=O)O)C(=O)O (stereo not drawn)
15000 | C/C=C(\NC(=O)C1CCCCC1)C(=O)O
3000 | C/C=C(\NC(=O)C1CC1)C(=O)O
230 | CC1(C)CC1C(=O)N/C(=C\CCCCCO)C(=O)O (stereo not drawn)
1700 | C/C=C(\NC(=O)[C@@H]1C[C@H]1C)C(=O)O
87 | CC1(C)CC1C(=O)N/C(=C\CCCCS(=O)(=O)O)C(=O)O (stereo not drawn)
2700 | CC(C)CC(=O)N/C(=C\CCC(=O)O)C(=O)O

Ki [nM] | SMILES
160 | CCCCCC/C=C(\NC(=O)C1CC1(C)C)C(=O)O (stereo not drawn)
39000 | C/C=C(\NC(=O)CCCC(=O)OCC)C(=O)O
25000 | C/C=C(\NC(=O)CCCCC#N)C(=O)O
290 | CN(CCCCC/C=C(\NC(=O)C1CC1(C)C)C(=O)O)CC(=O)O (stereo not drawn)
25000 | C/C=C(\NC(=O)c1ccccc1Cl)C(=O)O
34000 | C=CCCCCCCCCC(=O)N/C(=C\C)C(=O)O
150 | CSCCCCC/C=C(\NC(=O)C1CC1(C)C)C(=O)O (stereo not drawn)
82 | CC1(C)CC1C(=O)N/C(=C\CCCCCC#N)C(=O)O (stereo not drawn)
20000 | C/C=C(\NC(=O)CC(C)(C)C)C(=O)O
650 | CC1(C)C[C@@H]1C(=O)N/C(=C\CCCCC[N+](C)(C)C)C(=O)[O-]
40 | CC1(C)CC1C(=O)N/C(=C\CCCCSc1ncccc1C(=O)O)C(=O)O (stereo not drawn)
230 | CC1(C)CC1C(=O)N/C(=C\CCCCCSCC(N)C(=O)O)C(=O)O (stereo not drawn)
28000 | C/C=C(\NC(=O)C=C(C)C)C(=O)O
210 | CC1(C)C[C@@H]1C(=O)N/C(=C\CCCCSC[C@H](N)C(=O)O)C(=O)O (stereo in doubt; 174) [CILASTATIN]
96 | CCCCCCC/C=C(\NC(=O)C1CC1(C)C)C(=O)O (stereo not drawn)
240 | CC1(C)CC1C(=O)N/C(=C\CC(F)(F)F)C(=O)O (stereo not drawn)
150 | CNC(CSCCCC/C=C(\NC(=O)[C@H]1CC1(C)C)C(=O)O)C(=O)O (stereo partly drawn)
12000 | C/C=C(\NC(=O)[C@@H]1C[C@@H]1C)C(=O)O
170 | CC1(C)CC1C(=O)N/C(=C\CCCCCS)C(=O)O (stereo not drawn)
270 | CC1(C)CC1C(=O)N/C(=C\CCCCCBr)C(=O)O (stereo not drawn)
20 | CC1(C)CC1C(=O)N/C(=C\CCCCSc1ncccc1O)C(=O)O (stereo not drawn)
380 | CC1(C)CC1C(=O)N/C(=C\CCCBr)C(=O)O (stereo not drawn)
3450 | CN(C)CCCC/C=C(\NC(=O)C1CC1(C)C)C(=O)O (stereo not drawn)
400 | CN(CCCCCC/C=C(\NC(=O)C1CC1(C)C)C(=O)O)CC(=O)O (stereo not drawn)

Ki [nM] | SMILES
18000 | C/C=C(\NC(=O)CCCCC(=O)OCC)C(=O)O
25000 | C/C=C(\NC(=O)CC1CCCCC1)C(=O)O
140 | CC1(C)CC1C(=O)N/C(=C\CCC(=O)O)C(=O)O (stereo not drawn)
22000 | C/C=C(\NC(=O)c1cccc(Cl)c1)C(=O)O
4600 | C/C=C(\NC(=O)[C@H]1[C@H](C)[C@@H]1C)C(=O)O
60 | CC1(C)CC1C(=O)N/C(=C\CCCCSc1ccccc1C(=O)O)C(=O)O (stereo not drawn)
400 | CC1(C)CC1C(=O)N/C(=C\CCCCCNCP(=O)(O)O)C(=O)O (stereo not drawn)
5000 | C/C=C(\NC(=O)[C@@H]1C[C@H]1c1ccccc1)C(=O)O
8800 | CCCCC/C=C(\NC(=O)[C@@H]1CC1(C)C)C(=O)O
300 | CC1(C)CC1C(=O)N/C(=C\CCCCCNC(N)=O)C(=O)O (stereo not drawn)
220 | CC1(C)CC1C(=O)N/C(=C\CCCSCP(=O)(O)O)C(=O)O (stereo not drawn)
12000 | C/C=C(\NC(=O)C1CCCCCC1)C(=O)O
130 | CC1(C)CC1C(=O)N/C(=C\CCCCSCC(=O)O)C(=O)O (stereo not drawn)
180 | CC1(C)C[C@@H]1C(=O)N/C(=C\CCCCCNC(C)(C)P(=O)(O)O)C(=O)O
15 | CCC/C=C(\NC(=O)C1CC1(Br)Br)C(=O)O (stereo not drawn)
4200 | C/C=C(\NC(=O)[C@H]1[C@@H]2CCCC[C@@H]21)C(=O)O
4700 | C/C=C(\NC(=O)C1CCC1C)C(=O)O (stereo not drawn)
180 | C[N+](C)(C)CCCCC/C=C(\NC(=O)C1CC1(Cl)Cl)C(=O)O (stereo not drawn)
250 | CC1(C)CC1C(=O)N/C(=C\CCCCCSCC(N)=O)C(=O)O (stereo not drawn)
10000 | C/C=C(\NC(=O)CCCCC(=O)N/C(=C\C)C(=O)O)C(=O)O
450 | CC1(C)CC1C(=O)N/C(=C\CCCCCCC[N+](C)(C)Cc1ccccc1)C(=O)[O-] (stereo not drawn)
102000 | C/C=C(\NC(=O)CCCNC(C)=O)C(=O)O
210 | CC1(C)CC1C(=O)N/C(=C\CCCCC#N)C(=O)O (stereo not drawn)
560 | CN(CCCC/C=C(\NC(=O)C1CC1(C)C)C(=O)O)CC(=O)O (stereo not drawn)

Ki [nM] | SMILES
3300 | C/C=C(\NC(=O)C(C)C(C)C)C(=O)O (stereo not drawn)
570 | CC1(C)CC1C(=O)N/C(=C\CCCCCCC[N+](C)(C)C)C(=O)[O-] (stereo not drawn)
52000 | C=C(NC(=O)C1CC1(C)C)C(=O)O (stereo not drawn)
1600 | C/C=C(\NC(=O)C1CC12CC2)C(=O)O (stereo not drawn)
520 | CN(C)CCCCCCC/C=C(\NC(=O)C1CC1(C)C)C(=O)O (stereo not drawn)
110 | CC1(C)CC1C(=O)N/C(=C\CCCCCCCBr)C(=O)O (stereo not drawn)
80 | C/C=C(\NC(=O)C1CC1(Cl)Cl)C(=O)O (stereo not drawn)
860 | CCN(CC)CCCCC/C=C(\NC(=O)C1CC1(C)C)C(=O)O (stereo not drawn)
19000 | C/C=C(\NC(=O)CCCCCCCCCC)C(=O)O
32000 | C/C=C(\NC(=O)CCCCCCCC)C(=O)O
10000 | C/C=C(\NC(=O)CCCc1cccs1)C(=O)O
35000 | C/C=C(\NC(=O)CCCCCCCCCCC)C(=O)O
19000 | C/C=C(\NC(=O)CCCCCBr)C(=O)O
60 | CC(=O)NC(CSCCCC/C=C(\NC(=O)[C@H]1CC1(C)C)C(=O)O)C(=O)O (stereo partly drawn)
2100 | C/C=C(\NC(=O)C1CC1(F)F)C(=O)O (stereo not drawn)
840 | CC1(C)CC1C(=O)N/C(=C\CCCCCNC1=NCCN1)C(=O)O (stereo not drawn)
11200 | CCCCC/C=C(/NC(=O)C1CC1(C)C)C(=O)O (stereo not drawn)
11200 | C/C=C(\NC(=O)C1CC(C)(C)C1)C(=O)O
44 | CCOC(=S)SCCCCC/C=C(\NC(=O)C1CC1(C)C)C(=O)O (stereo not drawn)
150 | CC1(C)CC1C(=O)N/C(=C\CCCCBr)C(=O)O (stereo not drawn)
6500 | C/C=C(\NC(=O)[C@@H]1C[C@H]1C(C)(C)C)C(=O)O
910 | CC1(C)CC1C(=O)N/C(=C\CCCCC[N+](C)(C)CCO)C(=O)[O-] (stereo not drawn)
200 | COC(=O)CSCCCCC/C=C(\NC(=O)C1CC1(C)C)C(=O)O (stereo not drawn)
130 | CC1(C)CC1C(=O)N/C(=C\CCCSc1ncccc1O)C(=O)O (stereo not drawn)

Ki [nM] | SMILES
280 | CC(NCCCCC/C=C(\NC(=O)C1CC1(C)C)C(=O)O)P(=O)(O)O (stereo not drawn)
580 | CC1(C)CC1C(=O)N/C(=C\CCCCCNCCP(=O)(O)O)C(=O)O (stereo not drawn)
14000 | C/C=C(\NC(=O)CCC(C)C)C(=O)O
52000 | C/C=C(\NC(=O)CCCNC(=O)CC(C)C)C(=O)O
160 | CC(NCCCCC/C=C(\NC(=O)[C@H]1CC1(C)C)C(=O)O)P(=O)(O)O (stereo partly drawn)
41000 | C/C=C(\NC(=O)CCCCCNC(=O)CC)C(=O)O
740 | C#CCNCCCCC/C=C(\NC(=O)C1CC1(C)C)C(=O)O (stereo not drawn)
1000 | CC1(C)CC1C(=O)N/C(=C\CCCCCN)C(=O)O (stereo not drawn)
60 | CCCCC/C=C(\NC(=O)C1CC1(Cl)Cl)C(=O)O (stereo not drawn)
180 | COCCCCC/C=C(\NC(=O)C1CC1(C)C)C(=O)O (stereo not drawn)
1280 | CN(C)CCCCC/C=C(\NC(=O)C1CC1(C)C)C(=O)O (stereo not drawn)
280 | COC(=O)CSCCC/C=C(\NC(=O)C1CC1(C)C)C(=O)O (stereo not drawn)
870 | C=CCNCCCCC/C=C(\NC(=O)C1CC1(C)C)C(=O)O (stereo not drawn)
230 | C=CCC/C=C(\NC(=O)C1CC1(C)C)C(=O)O (stereo not drawn)
28000 | C/C=C(\NC(=O)CCCCCCCCC(=O)O)C(=O)O
160 | CC1(C)CC1C(=O)N/C(=C\CCCCSCC(=O)C(=O)O)C(=O)O (stereo not drawn)
270 | CC1(C)CC1C(=O)N/C(=C\CCCSCC(N)C(=O)O)C(=O)O (stereo not drawn)
67000 | C/C=C(\NC(=O)CC(C)CCCC(C)(C)O)C(=O)O (stereo not drawn)
810 | CC1(C)CC1C(=O)N/C(=C\CCCCCCCN)C(=O)O (stereo not drawn)
190 | CC1(C)C[C@@H]1C(=O)N/C(=C\CCCCSC[C@H](N)C(=O)O)C(=O)O (stereo in doubt; 175) [CILASTATIN]
160 | COCCCC/C=C(\NC(=O)C1CC1(C)C)C(=O)O (stereo not drawn)
100 | CC1(C)CC1C(=O)N/C(=C\CCCCSc1ccccc1)C(=O)O (stereo not drawn)
